What follows are compounds tested against DNA-PK (Homo sapiens, UniProt P78527) (assay: DNA-PK inhibition assay (radiometric, 33P-ATP)). Conditions: 100 μM ATP, competitive tight-binding fit.
Assay type: biochemical
Method: Compounds were screened for their ability to inhibit DNA-PK kinase using a standard radiometric assay. Briefly, in this kinase assay the transfer of the terminal ^33P-phosphate in ^33P-ATP to a peptide substrate is interrogated. The assay was carried out in 384-well plates to a final volume of 50 μL per well containing approximately 6 nM DNA-PK, 50 mM HEPES (pH 7.5), 10 mM MgCl2, 25 mM NaCl, 0.01% BSA, 1 mM DTT, 10 μg/mL sheared double-stranded DNA (obtained from Sigma), 0.8 mg/mL DNA-PK peptide ([…] obtained from American Peptide), and 100 μM ATP. Accordingly, compounds of the invention were dissolved in DMSO to make 10 mM initial stock solutions. Serial dilutions in DMSO were then made to obtain the final solutions for the assay. A 0.75 μL aliquot of DMSO or inhibitor in DMSO was added to each well, followed by the addition of ATP substrate solution containing ^33P-ATP (obtained from Perkin Elmer). The reaction was started by the addition of DNA-PK, peptide and ds-DNA. After 45 min, the reaction was quenched with 25 μL of 5% phosphoric acid. The reaction mixture was transferred to MultiScreen HTS 384-well PH plates (obtained from Millipore), allowed to bind for one hour, and washed three times with 1% phosphoric acid. Following the addition of 50 μL of Ultima Gold™ high efficiency scintillant (obtained from Perkin Elmer), the samples were counted in a Packard TopCount NXT Microplate Scintillation and Luminescence Counter (Packard BioScience). The Ki values were calculated using Microsoft Excel Solver macros to fit the data to the kinetic model for competitive tight-binding inhibition.

Row | SMILES | Ki [nM]
1 | CCc1ccc(-c2cc(NC[C@@H](C)c3cccc4c(C(=O)NC)ccnc34)ncn2)cn1 [Compound 789] | < 30
2 | CNc1ncc(-c2cc(NC[C@@H](C)c3ccccc3OC)ncn2)cn1 [Compound 137] | < 30
3 | CNC(=O)c1ccc(C(C)CNc2cc(-c3cnc4c(ccn4C)c3)ncn2)c(OC)c1 (stereo not drawn) [Compound 189] | < 30
4 | CNC(=O)c1ccnc2c([C@H](C)CNc3cc(-c4cncc(C#N)c4)ncn3)cccc12 [Compound 868] | < 30
5 | CNC(=O)c1ccc([C@H](C)CNc2cc(-c3ccc(N(C)C4CCN(C)CC4)nc3)ncn2)c(OC)c1 [Compound 347] | < 30
6 | CNC(=O)c1ccc(C(C)CNc2cc(-c3ccc4c(cnn4CCO)c3)ncn2)c(OC)c1 (stereo not drawn) [Compound 246] | < 30
7 | CCOc1ccccc1CCNc1cc(-c2ccc(N3CCN(CCO)CC3)nc2)ncn1 [Compound 94] | < 30
8 | CNC(=O)c1c(F)cnc2c([C@H](C)CNc3cc(-c4ccc(C5CCC5)nc4)ncn3)cccc12 [Compound 855] | < 30
9 | CNC(=O)c1ccnc2c([C@H](C)CNc3cc(-c4cncc(S(C)(=O)=O)c4)ncn3)cccc12 [Compound 877] | < 30
10 | COc1cnc(N)cc1[C@H](C)CNc1cc(-c2ccc(C)nc2)ncn1 [Compound 630] | < 30
11 | COc1ccccc1[C@H](C)CNc1cc(-c2ccc(N3CCCC3)nc2)ncn1 [Compound 84] | < 30
12 | CNC(=O)c1ccc(C(C)CNc2cc(-c3cnc4c(cnn4CC(C)(C)O)c3)ncn2)c(OC)c1 (stereo not drawn) [Compound 274] | < 30
13 | CNC(=O)c1c(C#N)cnc2c([C@H](C)CNc3cc(-c4ccc(C)nc4)ncn3)cccc12 [Compound 766] | < 30
14 | CNC(=O)c1ccnc2c([C@H](C)CNc3cc(-c4ccnc(C5CC5)c4)ncn3)ccc(F)c12 [Compound 914] | < 30
15 | CNC(=O)c1ccc(C(C)CNc2cc(-c3ccc(OCCS(C)(=O)=O)nc3)ncn2)c(OC)c1 (stereo not drawn) [Compound 325] | < 30
16 | COc1cc(CO)ccc1C(C)CNc1cc(-c2ccc(N3CCN(C(C)=O)CC3)nc2)ncn1 (stereo not drawn) [Compound 115] | < 30
17 | CNC(=O)c1ccnc2c([C@H](C)CNc3cc(-c4ccc(C5CCC5)nc4)ncn3)ccc(F)c12 [Compound 850] | < 30
18 | CNC(=O)c1c(F)cnc2c([C@H](C)CNc3cc(-c4cnc(OC)c(N)c4)ncn3)cccc12 [Compound 902] | < 30
19 | CNC(=O)c1ccnc2c([C@H](C)CNc3cc(-c4cnc(C5CCOCC5)nc4)ncn3)ccc(F)c12 [Compound 832] | < 30
20 | Cc1ccc(-c2cc(NC[C@@H](C)c3ccccc3OC3CC3)ncn2)cn1 [Compound 107] | < 30

Row | SMILES | Ki [nM]
21 | CNC(=O)c1c(OC)cnc2c([C@H](C)CNc3cc(-c4ccc(C)nc4)ncn3)cccc12 [Compound 762] | < 30
22 | COc1ccccc1[C@H](C)CNc1cc(-c2ccc(NCCO)nc2)ncn1 [Compound 118] | < 30
23 | CNC(=O)c1ccnc2c([C@H](C)CNc3cc(-c4cnn(C)c4)ncn3)cccc12 [Compound 661] | < 30
24 | CNC(=O)c1ccnc2c([C@H](C)CNc3cc(-c4cncc(N5CCOCC5)c4)ncn3)ccc(F)c12 [Compound 915] | < 30
25 | COc1cc(C(=O)NC2CCCC2)ccc1C(C)CNc1cc(-c2ccc(C)nc2)ncn1 (stereo not drawn) [Compound 159] | < 30
26 | COc1ccccc1CCNc1cc(-c2ccc3c(cnn3C)c2)ncn1 [Compound 79] | < 30
27 | COc1ccccc1[C@H](C)CNc1cc(-c2ccc(NC3CCN(C)CC3)nc2)ncn1 [Compound 254] | < 30
28 | CNC(=O)c1ccnc2c([C@H](C)CNc3cc(-c4ccc(OC)nc4)ncn3)ccc(F)c12 [Compound 908] | < 30
29 | CNC(=O)c1ccnc2c([C@H](C)CNc3cc(-c4ccc(C(=O)NCCCN(C)C)cc4)ncn3)cccc12 [Compound 751] | < 30
30 | CNC(=O)c1ccnc2c([C@H](C)CNc3cc(-c4ccnc(C)c4)ncn3)ccc(F)c12 [Compound 903] | < 30
31 | COc1ccc(C(C)CNc2cc(-c3ccc(C)nc3)ncn2)c(N)n1 (stereo not drawn) [Compound 642] | < 30
32 | CNC(=O)c1ccnc2c([C@H](C)CNc3cc(-c4cnc(C(C)C)nc4)ncn3)cccc12 [Compound 849] | < 30
33 | COc1ccccc1[C@H](C)CNc1cc(-c2ccc(N3CCN(C)CC3)nc2)ncn1 [Compound 32, (S)—N-(2-(2-Methoxyphenyl)propyl)-6-(6-(4-methylpiperazin-1-yl)pyridin-3-yl)pyrimidin-4-amine] | < 30
34 | COc1cscc1C(C)CNc1cc(-c2ccc(C)nc2)ncn1 (stereo not drawn) [Compound 144] | < 30
35 | CNC(=O)c1ccnc2c([C@H](C)CNc3cc(-c4ccc(N(C)CCOCC5CC5)nc4)ncn3)cccc12 [Compound 714] | < 30
36 | CNC(=O)c1ccnc2c([C@H](C)CNc3cc(-c4ccnc(N5CCOCC5)c4)ncn3)cccc12 [Compound 818] | < 30
37 | CC(CNc1cc(-c2cnc3c(cnn3CCO)c2)ncn1)c1cc(F)c(F)cc1OC1CCC1 (stereo not drawn) [Compound 382] | < 30
38 | CNC(=O)c1ccnc2c([C@H](C)CNc3cc(-c4cnc(OC5COC5)nc4)ncn3)cccc12 [Compound 666] | < 30
39 | Cc1ccc(-c2cc(NC[C@@H](C)c3cncc4c3OCCN4)ncn2)cn1 [Compound 837] | < 30

Further lines, results first:

Row | Ki [nM] | SMILES
40 | < 30 | CNC(=O)c1ccnc2c([C@H](C)CNc3cc(-c4cnc(C)nc4)ncn3)ccc(F)c12 [Compound 622]
41 | < 30 | COc1ccccc1[C@H](C)CNc1cc(-c2ccc(NC(CO)CO)nc2)ncn1 [Compound 199]
42 | < 30 | CNC(=O)c1ccc(C(C)CNc2cc(-c3ccc(OCC4CCC4)nc3)ncn2)c(OC)c1 (stereo not drawn) [Compound 321]
43 | < 30 | CCOc1ccccc1CCNc1cc(-c2ccc(N3CC[C@H](O)C3)nc2)ncn1 [Compound 98]
44 | < 30 | CNC(=O)c1c(F)cnc2c([C@H](C)CNc3cc(-c4cnn(C)c4)ncn3)cccc12 [Compound 783]
45 | < 30 | CCNc1ccc(-c2cc(NC[C@@H](C)c3ccnc4cccnc34)ncn2)cn1 [Compound 514]
46 | < 30 | CNC(=O)c1c(F)cnc2c([C@H](C)CNc3cc(-c4ccc(C5(N)CC5)nc4)ncn3)cccc12 [Compound 941]
47 | < 30 | CNC(=O)c1ccc(C(C)CNc2cc(-c3cc4cnn(C5COC5)c4cc3C)ncn2)c(OC)c1 (stereo not drawn) [Compound 283]
48 | < 30 | C[C@H](CNc1cc(-c2cnc3c(ccn3C3COC3)c2)ncn1)c1ccnc2c1OCCO2 [Compound 536]
49 | < 30 | C[C@H](CNc1cc(-c2cnc3c(cnn3C3COC3)c2)ncn1)c1ccnc2c1OCC2 [Compound 417]
50 | < 30 | CNCCNc1ccc(-c2cc(NC[C@@H](C)c3ccccc3OC)ncn2)cn1 [Compound 205]
51 | < 30 | CNC(=O)c1ccc(C(C)CNc2cc(-c3ccc(OCCSC)nc3)ncn2)c(OC)c1 (stereo not drawn) [Compound 323]
52 | < 30 | CNC(=O)c1ccnc2c([C@H](C)CNc3cc(-c4cnc(OC)c(F)c4)ncn3)cccc12 [Compound 881]
53 | < 30 | CCNc1ccc(-c2cc(NC[C@@H](C)c3cc(C)nc4c3OCC4)ncn2)cn1 [Compound 575]
54 | < 30 | CNC(=O)c1ccnc2c([C@H](C)CNc3cc(-c4cnc(NC)c(C#N)c4)ncn3)cccc12 [Compound 955]
55 | < 30 | CNC(=O)c1ccnc2c([C@H](C)CNc3cc(-c4ccc(N5CCCC5)nc4)ncn3)cccc12 [Compound 723]
56 | < 30 | COCCn1ncc2cc(-c3cc(NCC(C)c4sccc4OC)ncn3)cnc21 (stereo not drawn) [Compound 260]
57 | < 30 | CNC(=O)c1ccc([C@H](C)CNc2cc(-c3ccc4c(cnn4CC4CC4)c3)ncn2)c(OC)c1 [Compound 294]
58 | < 30 | COCCn1ncc2cc(-c3cc(NCC(C)c4ccc(C(=O)NCC(F)(F)F)cc4OC)ncn3)cnc21 (stereo not drawn) [Compound 220]
59 | < 30 | Cc1ccc(-c2cc(NC[C@@H](C)c3ccnc4c3OCC4C)ncn2)cn1 (single isomer, unassigned) [Compound 576]
60 | < 30 | CNC(=O)c1ccnc2c([C@H](C)CNc3cc(-c4ccc(C(C)=O)cc4)ncn3)cccc12 [Compound 590]
61 | < 30 | Cc1ccc(-c2cc(NC[C@@H](C)c3ccnc4cc(C)oc34)ncn2)cn1 [Compound 563]
62 | < 30 | CNC(=O)c1ccnc2c([C@H](C)CNc3cc(-c4cnc5c(c4)OCCN5)ncn3)cccc12 [Compound 817]
63 | < 30 | CCNc1ncc(-c2cc(NC[C@@H](C)c3cccc4c(C(=O)NC)ccnc34)ncn2)cn1 [Compound 942]
64 | < 30 | CNC(=O)c1ccc([C@H](C)CNc2cc(-c3ccc(Nc4ccncc4)nc3)ncn2)c(OC)c1 [Compound 396]
65 | < 30 | Cc1ccc(-c2cc(NC[C@@H](C)c3ccnc4cccnc34)ncn2)cn1 [Compound 495]
66 | < 30 | COc1sccc1C(C)CNc1cc(-c2ccc(C)nc2)ncn1 (stereo not drawn) [Compound 257]
67 | < 30 | COc1ccccc1[C@H](C)CNc1cc(-c2ccc(NCC3(O)CC3)nc2)ncn1 [Compound 204]
68 | < 30 | CC(CNc1cc(-c2cnc3[nH]ncc3c2)ncn1)c1ccccc1OC1COC1 (stereo not drawn) [Compound 214]
69 | < 30 | CNC(=O)c1ccnc2c([C@H](C)CNc3cc(-c4cnc(COC)nc4)ncn3)cccc12 [Compound 886]

From patent publication US10391095B2, “DNA-PK inhibitors” (Vertex Pharmaceuticals Incorporated, priority 2012, dated 2019)
